Laboratory results reported in patent US11331367B1, “Compounds and methods for inhibiting protozoan parasites” (University of South Florida, priority 2018, dated 2022).
Non-standard residues stand in square brackets, D forms with d. Residues, ends and D or L forms follow the SMILES beside them. *: point of attachment. NMeI = CC[C@H](C)[C@H](NC)C(=O)O; dNMeF = CN[C@H](Cc1ccccc1)C(=O)O; X1 = C(=C/c1c[nH]c2ccccc12)/N*; NMeV = CN[C@H](C(=O)O)C(C)C; NMeA = CN[C@@H](C)C(=O)O

Test system: Plasmodium falciparum liver-stage parasites
Assay: microbe, parasite or virus in culture
Type: cell-based
Conditions: for inhibition of P. falciparum liver-stage development (in words): in vitro liver model, drug treatment at 10 μM
Protocol: Bioactivity of friomaramide was evaluated for inhibition of Plasmodium falciparum liver-stage parasites and primary human hepatocyte (PHH) toxicity using an in vitro liver model. In brief, cryopreserved PHHs were seeded at 1.8×10^4 cells per well in a 384-well microplate. Freshly isolated P. falciparum sporozoites were inoculated at 2.0×10^4 per well with subsequent drug treatment at 10 μM. Media was changed daily with fresh addition of drug for 3 days until experiment fixation on day 6.

Row | SMILES | inhibition of P. falciparum liver-stage development (in words) | inhibition at 10 µM (Plasmodium falciparum, Hepatocyte, read-out: inhibition of P. falciparum liver-stage growth) [%]
1 | C[C@H]1[C@@H](O)O[C@@H]2O[C@@]3(C)CC[C@H]4[C@H](C)CC[C@@H]1[C@@]24OO3 [DHA] | does not inhibit | 
2 | CC[C@H](C)[C@@H](C(=O)N/C=C\c1c[nH]c2ccccc12)N(C)C(=O)[C@H]([C@@H](C)CC)N(C)C(=O)[C@H](C)N(C)C(=O)[C@H](C(C)C)N(C)C(=O)[C@@H](Cc1ccccc1)N(C)C(C)=O [friomaramide] (Ac-[dNMeF][NMeV][NMeA][NMeI][NMeI]-X1) | block sporozoite invasion and subsequent liver-stage parasite development | 
3 | COc1cc(NC(C)CCCN)c2ncccc2c1 (stereo not drawn) [primaquine] |  | > 90
